Assay [1] addresses Gppcp-bound recombinant K-Ras4B G12C mutant protein (amino acids 1-169, C51S/C80L/C118S) (Homo sapiens, UniProt P01116, C118S/C51S/C80L/G12C). The experiment in a line: KRASG12C binding assay (LC-MS compound binding rate). Conditions: test compound final concentration 0.5 μM, 25° C., 1 hour. The method, boiled down:
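Gppcp-bound K-Ras4B G12C (aa 1-169, C51S/C80L/C118S) at 50 nM in 1×TBS, 0.1 mM TCEP, 0.25 mM MgCl2, 50 μM Gppcp was incubated 1 hour at 25° C with compound at 0.5 μM final. Intact-protein LC-MS gave binding rate as single-adduct signal over total KRAS signal, graded A (≥80%) to E (<20%).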

In assay [2] the target is T1, activated KRAS in NCI-H358 (Homo sapiens, UniProt P01116, G12C).
T1 construct: host or cells: NCI-H358
The experiment in a line: Amount of activated KRAS on KRAS-G12C mutant cell line NCI-H358 (Ras GTPase Chemi ELISA). It is filed as cell-based. Conditions: for pIC50: 1 hour with compound. Here is the method: NCI-H358 [H358, H358] (ATCC® CRL5807™), which is a KRAS-G12C mutant human lung cancer cell line, and MIA PaCa-2 (ATCC® CRL-1420™), which is a KRAS-G12C mutant human pancreas cancer cell line, were suspended in a 10% fetal bovine serum-containing RPMI1640 medium (manufactured by Thermo Fischer SCIENTIFIC), respectively. The cell suspension was seeded into a cell culture plate and cultured in an incubator containing 5% CO2 gas at 37° C. for 1 day. The lyophilized recombinant human EGF protein (R&D systems, Cat #: 236-EG-200) was dissolved in PBS to make 0.5 mg/ml solution. […] Then, the compounds obtained in the “Preparation of Compounds” section were used as test compounds and were dissolved in DMSO, and each test compound was diluted with DMSO to give a concentration 200 times the final concentration. The solution of the test compound in DMSO was diluted with the medium used for suspending cells and added to each well of the cell-culture plate to give a DMSO final concentration of 0.5%, followed by culture in an incubator containing 5% CO2 gas at 37° C. for another 1 hour. The amount of activated KRAS after 1 hour culture in the presence of the compound was measured using Ras GTPase Chemi ELISA Kit (manufactured by Active Motif). The ratio of KRAS activity was calculated from the following equation, and the concentration of the test compound at which activity was suppressed to 50% (IC50 (μM)) was determined. […] The Ratio of KRAS activity to control (%)=(T−BG)/(C−BG)×100 • T: the emission intensity in a well into which a test compound was added. • C: the emission intensity in a well into which a test compound was not added. • BG: the emission intensity in a well into which neither a test compound nor a cell suspension was added.
Background: ELISA stands for enzyme-linked immunosorbent assay.

The test system of assay [3] is MIA PaCa-2 cells. Put plainly: Growth inhibition activity on KRAS-G12C mutant cell line (MIA PaCa-2). It is filed as cell-based. Particulars: Homo sapiens, 72 h; MIA PaCa-2, 3-day culture, CellTiter-Glo 3D. The method, boiled down:
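KRAS-G12C human pancreatic MIA PaCa-2 cells in RPMI1640 + 10% FBS, seeded in U-bottom plates and grown 1 day, then exposed to compound (0.2% DMSO final) for 3 days at 37 °C, 5% CO2. Viability by CellTiter-Glo 3D luminescence; IC50 from inhibition relative to untreated wells.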

Setting [4] is: NCI-H358, with EGF 100 ng/ml, read-out: IC50 NCI-H358 with EGF.
Where [5] appears, read: NCI-H358, without EGF, read-out: IC50 NCI-H358 without EGF.

Structures are written as SMILES. pIC50: −log10 of the molar value. Like-named read-outs stand apart in the source and are kept apart here.

The term pIC50 denotes the negative decadic logarithm of the IC50, by convention in mol/L. With `C=CC(=O)N1CCN(c2ncnc3c(F)c(-c4c(O)cccc4F)c(Cl)cc23)CC1` [ARS-1620, reference compound], in assay [1], the binding rate entry is “E (a binding rate of less than 20% is rated “E”)”. For the same compound, in assay [2] (NCI-H358, EGF treatment), the “KRAS inhibition activity under EGF treatment” value is listed as “attenuated by EGF treatment”. The pIC50 is 5.27 in assay [2] (setting [4]) and 5.85 in assay [2] (setting [5]).

On to `CCc1nc2cc(-c3cccc(NC(=O)c4ccc(NC(=O)/C=C/CN[C@H]5CC[C@H](OC)CC5)c(C#N)c4)c3)c(C(F)(F)F)cc2n1C` [Example 1, 3-cyano-N-(3-(2-ethyl-1-methyl-6-(trifluoromethyl)-1H-benzo[d]imidazol-5-yl)phenyl)-4-((E)-4-(((1r, 4r)-4-methoxycyclohexyl)amino)but-2-enamido)benzamide], for which, in assay [1], the binding rate result is listed as “A (A binding rate of 80% or more is rated “A”)”. For the same compound, the pIC50 is 6.07 in assay [2] (setting [4]) and 6.12 in assay [2] (setting [5]).

For the compound `CO[C@H]1CC[C@H](NC/C=C/C(=O)Nc2ccc(C(=O)c3ccc4c(-c5cc6ncn(C)c6cc5C)cccn34)cc2C#N)CC1` [Example 4, (E)-N-(2-cyano-4-(8-(1,6-dimethyl-1H-benzo[d]imidazol-5-yl)indolizine-3-carbonyl)phenyl)-4-(((1r,4r)-4-methoxycyclohexyl)amino)but-2-enamide], the binding rate result in assay [1] is recorded as “A (A binding rate of 80% or more is rated “A”)”. Also, the pIC50 in assay [3] was 6.85; in assay [2] (setting [4]), 6.33; in assay [2] (setting [5]), 6.41.
